Data reported in patent publication US20050119285A1, “Treatment of neurological disorders related to rapid eye movement (REM) sleep disturbances with NPY Y5 receptor antagonists” (Pfizer Inc, priority 2003, published 2005).
Marks after values point to notes of the source that are not given here.

Tested on: adult, male Wistar rats
Assay: Sleep measurement by EEG in rats (in vivo sleep study)
Design: species or system rat
Conditions: for Maximal change in REM sleep: cumulative time in REM sleep compared to vehicle controls, first 24 hours after dose
Protocol: Sleep measurement by EEG: For the EEG sleep measurements, adult, male Wistar rats were anesthetized and surgically implanted with a cranial implant for chronic electro-encephalogram (EEG) and electromyogram (EMG) recording. At least three weeks were allowed for the animal to recover from surgery. Food and water were available ad libitum and the ambient temperature was 24±1° C. A 24-hr light-dark cycle (LD 12:12) was maintained throughout the study using fluorescent light. Light intensity averaged 35-40 lux at mid-level inside the cage. Animals were undisturbed for two days before and after each treatment. Sleep and wakefulness were determined using a microcomputer-based sleep-wake and physiological monitoring system. The system monitored amplified EEG (×10,000, bandpass 1-30 Hz; digitization rate 100 Hz, integrated EMG (bandpass 10-100 Hz, RMS integration), and telemetered body temperature and non-specific locomotor activity and drinking activity, from 16 rodents simultaneously. Arousal states were classified on-line as NREM sleep, REM sleep, wake, or theta-domihated wake every 10 seconds using EEG period and amplitude feature extraction and ranked membership algorithms. Individually taught EEG-arousal-state templates and EMG criteria differentiated REM sleep from theta-dominated wake. Drinking and locomotor activity were automatically recorded as discrete events every 10 seconds, and body temperature was recorded each minute. Data quality was assured by frequent on-line inspection of the EEG and EMG signals.
Drug Treatment: A NPY Y1 receptor antagonist was administered at 5, 10, 20 or 40 mg/kg in 0.25% methylcellulose vehicle. The NPY Y5 receptor antagonist of Formula la was administered at 5, 10 or 40 mg/kg and the NPY Y5 receptor antagonist of Formula IIa was administered at 10 and 40 mg/kg (both in 32% hydroxypropyl-betacyclodextrin vehicle). Drugs and vehicles were administered by oral gavage. Rats were randomly assigned to receive treatments in […]. The recording duration for the bioassay was 30 hours before and after treatment. At least 7 days “washout” elapsed between each treatment.
Variables recorded by EEG sleep-wake variables included NREM, REM, total sleep, and duration of sleep and wake bouts and were defined and computed as follows: • Wakefulness, NREM sleep, and REM sleep: percent time in state per hour or per 5 minute bin. • Cumulation of total sleep, NREM sleep, REM sleep, locomotor activity, and drink activity: post-treatment accumulated change over baseline. Change—from-baseline scores were computed by subtracting from the post-treatment value the baseline value at the corresponding circadian time. The change-from-baseline scores were then cumulated in hourly bins, and these values were plotted. • Sleep, wakefulness, and REM sleep bouts: The longest bout and the average bout of uninterrupted sleep each hour, measured in minutes. “Interruption” is defined as 3 or more consecutive 10 sec epochs of wakefulness. An analogous quantification is carried out for bouts of wakefulness and REM sleep. […] Pre-clinical measures of sleep bout length are also strong predictors of soporific efficacy in humans. • Locomotor activity: counts per hour or counts per 5 minute bin. • Locomotor activity intensity: locomotor activity counts per minute of EEG-defined wakefulness. This variate allows an assessment of locomotor activity that is independent of the amount of time awake, thus, it may be used to quantify the specificity of a wake- or sleep-promoting effect (Edgar et al. 1997).
Statistical Analysis—Mixed Model: Treatment effects were analyzed by a mixed model for repeated measures data. Mixed models were performed comparing each active-treatment with vehicle. For all models analysis was based on post-treatment hours with each hour adjusted for the corresponding baseline hour. Adjusting for baseline takes into account any differences between groups during baseline. […]

[1] = 5, 10 and 40 mg/kg, oral gavage

Structure (SMILES): O=C1OC2(CCN(C(=O)Nc3ccc(C(F)(F)F)cn3)CC2)c2ccccc21 [Formula Ia]
- Effect on NREM sleep [1]: increased NPEM sleep
- Effect on REM sleep [1]: significantly reduced REM sleep in a dose-related manner
- Effect on sleep continuity (sleep bout length) [1]: increased
- Persistence of REM sleep inhibiting and NREM sleep promoting effects (after 40 mg/kg, oral gavage): at least 48 hours
- REM sleep inhibiting and NREM sleep promoting effects still observed after dosing (after 40 mg/kg, oral gavage): ≥ 4.5 days
- Maximal change in REM sleep (dose 5 (mg/kg), oral gavage): −23.8* minutes
- Maximal change in REM sleep (dose 10 (mg/kg), oral gavage): −42.6* minutes
- Maximal change in REM sleep (dose 40 (mg/kg), oral gavage): −74.4* minutes
- Effect on sleep (REM and NREM) in a laboratory animal (summary statement, no dose given): affected sleep (REM and NREM)
